For assay [1], the system named is alkaline phosphatase (AP). Put plainly: Chemiluminescent detection of alkaline phosphatase with acridan phosphate and surfactant enhancer. It is filed as biochemical. The settings on record: 25° C.; for S/B (ratio of maximum light intensity to light intensity in the absence of enzyme): 0.33 mM 1, 0.01 mg/mL Enhancer A.
Assay [2] deals with AP-labeled antibody. The experiment in a line: Western blot using nitrocellulose membrane. Conditions: 0.33 mM 1, pH 9.6, 0.5 mg/mL Enhancer A. Here is the method:
A Western blot assay according to the procedures in Example 27 was performed using nitrocellulose membrane as the solid phase. Transferrin standards in the range of 5000-30 pg were used.

Assay [3] concerns acid phosphatase (AcP). The experiment in a line: Chemiluminescent detection of AcP by pH change. The class given is biochemical. The settings on record: 0.33 mM 1, tris pH 7.0, 0.1% BSA, 0.01% Enhancer A, 3 μL AcP, 8 min; 1 N NaOH injected, integrated 4 min. How it is done: An alternate way to detect the light emitted by reaction of AcP with 1 is to incubate a reagent composition containing 1 and enhancer with AcP at a first pH and then rapidly raise the pH by injecting a solution of a strong base to cause a burst of light emission. A reagent composition (100 μL) comprising 0.33 mM acridan phosphate 1 in 0.1 M tris buffer, pH 7.0, 0.1% BSA and 0.01% Enhancer A was reacted with 3 μL of AcP (Sigma AcP LIN-TROL, reconstituted to 2.0 mL, 83 U/L) for 8 min at ambient temperature in a test tube. A solution of 1 N NaOH (50 μL) was injected and light intensity integrated for 4 min.

Assay [4] relates to alkaline phosphatase (AP). The experiment in a line: Chemiluminescent detection of alkaline phosphatase with acridan phosphate and cationic aromatic compound (CAC). It is filed as biochemical. The settings on record: for S at 36 min (plateau intensity): 21 mM CAC in DMSO diluted 1:1000 into compound 5 in 0.1 M tris pH 8.8, 4×10^−16 mol AP, room temperature.
Assay [5] has as its system AP-labeled antibody. Put plainly: Western blot assay of human transferrin using PVDF membrane. The source says:
The chemiluminescent reaction of the present invention provides a particularly effective reagent for detection of AP conjugates on polyvinylidene difluoride (PVDF) membranes, nylon membranes and on nitrocellulose filters and membranes.
provides an intense luminescence which rises to a maximum level nearly instantly and maintains essentially constant intensity for at least 2 days. Detection on film and optimizing image intensity are thus particularly convenient.
Compositions of the present invention were used to detect and quantify a protein, human transferrin in a Western blot with an AP-labeled antibody on a polyvinylidene difluoride (PVDF) membrane. Dilutions of transferrin containing from 5000, 1000, 180, 30 and 5 pg, respectively, of protein were electrophoresed and transferred to PVDF membranes (Millipore, Bedford, Mass.). The transferrin bands were blocked with and then reacted sequentially with goat anti-human transferrin and rabbit anti-goat-AP conjugate. The membranes were soaked briefly with reagents comprising 0.2 M 221 buffer, pH 9.6 containing 0.88 mM MgCl2, 0.66 mM acridan phosphate 1 and 0.1 to 1 mg/mL of Enhancer A. The membranes were placed between transparent plastic sheets and exposed to X-ray film. […] The light produced using these compositions with varying amounts of the enhancer led to intense emission which could be imaged for at least 2 weeks. […]

The test system of assay [6] is acid phosphatase (AcP). Put plainly: Chemiluminescent detection of acid phosphatase and inhibition by tartrate. The settings on record: 0.33 mM 1, 0.1 M tris pH 7, 0.01-0.1% Enhancer A; ambient temperature. The class given is biochemical. Here is the method:
The quenching of emission was not due to a reduction of the pH since addition of 10 μL of citrate buffer caused only a 25% reduction in light intensity.

Assay [7] concerns AP-labeled antibody. Put plainly: Western blot assay with compound 5 and lucigenin. Conditions: 0.66 mM 5, 64 μM lucigenin, 0.1 M tris pH 8.8; PVDF membrane. The source says:
A composition of the present invention were used to detect and quantify a protein, human transferrin in a Western blot with an AP-labeled antibody on a polyvinylidene difluoride (PVDF) membrane. Dilutions of transferrin containing from 5000, 1000, 180, 30 and 5 pg, respectively, of protein were electrophoresed and transferred to PVDF membranes (Millipore, Bedford, Mass.). The transferrin bands were blocked with and then reacted sequentially with goat anti-human transferrin and rabbit anti-goat-AP conjugate. The membranes were soaked briefly with reagents comprising 0.1 M tris buffer, pH 8.8 containing 0.88 mM MgCl2, 0.66 mM compound 5 and 64 μM lucigenin. The membranes were placed between transparent plastic sheets and exposed to X-ray film. The bands for human transferrin were detected after 10 min with a 2.5 min exposure. The light produced using this composition led to intense emission which could be imaged for several hours.
Similar results were obtained using nitrocellulose blotting membrane instead of PVDF membrane.

[8] abbreviates: 0.66 mM 5, 0.2 M 2-methyl-2-amino-1-propanol pH 9.6, 0.5 mg/mL Enhancer A, 10^−13 mol AP.

As to `CN1c2ccccc2C(=C(Oc2ccccc2)OP(=O)([O-])[O-])c2ccccc21.[Na+].[Na+]` [Compound 1, 9-(Phenoxyphosphoryloxymethylidene)-10-methylacridan, disodium salt], the “time to maximum chemiluminescence intensity” value is listed as 2 min in assay [1] (0.33 mM 1, 0.1 M tris pH 8.5, 0.88 mM Mg, 0.01 mg/mL Enhancer A, 10^−13 mol AP) and “ca. 2 min” in assay [1] (reagent composition of Example 14, 8×10^−16 mol AP). In addition, the “chemiluminescence on reaction with AP” value in assay [1] (composition of Example 14 (0.1 M tris pH 8.5, Enhancer A), AP) was “easily measurable blue chemiluminescence”. Also, the “S/B (ratio of maximum light intensity to light intensity in the absence of enzyme)” value is listed as 37 in assay [1] (pH 7.0, tris, 8×10^−16 mol AP); 144 in assay [1] (pH 7.5, tris, 8×10^−16 mol AP); 273 in assay [1] (pH 8.0, tris, 8×10^−16 mol AP); 280 in assay [1] (pH 8.5, tris, 8×10^−16 mol AP); 200 in assay [1] (pH 9.0, 221 buffer, 8×10^−16 mol AP); 195 in assay [1] (pH 9.0, tris, 8×10^−16 mol AP). Also, the “S/B (ratio of maximum light intensity to light intensity in the absence of enzyme)” value was 87 in assay [1] (pH 9.5, 221 buffer, 8×10^−16 mol AP); 13 in assay [1] (pH 10.0, 221 buffer, 8×10^−16 mol AP); 1.3 in assay [1] (pH 10.5, 221 buffer, 8×10^−16 mol AP). Further, the “period over which detection could be performed” value in the assay on AP-labeled antibody [2] is “over several hours”. Further, the “light intensity relative to reagent blank” value in the assay on acid phosphatase (AcP) [3] is listed as “three times the reagent blank”. The “S at 36 min (plateau intensity)” value in assay [4] was found to be 2602. Further, the “time for which emission could be imaged” value in the assay with AP-labeled antibody [5] (0.66 mM 1, 0.2 M 221 buffer pH 9.6, 0.1 to 1 mg/mL Enhancer A, PVDF) is given as “at least 2 weeks”. In the assay with AP-labeled antibody [5] (antibody-AP conjugate on PVDF membrane), the “time for which luminescence maintains essentially constant intensity” value is listed as “at least 2 days”. For the same compound, in the assay with acid phosphatase (AcP) [6], the “time course of chemiluminescence with AcP” value was “reached maximum intensity nearly instantaneously and remained nearly constant for several minutes”.

For `CN1c2ccccc2C(=C(OP(=O)([O-])[O-])Sc2ccccc2)c2ccccc21.[Na+].[Na+]` [Compound 5, 9-(Phenylthiophosphoryloxymethylidene)-10-methylacridan, disodium salt], in assay [1] (setting [8]), the “chemiluminescence on reaction with AP” value is “easily measurable blue chemiluminescence” and the “time to maximum chemiluminescence intensity” value worked out at 2 min. In addition, in the assay with AP-labeled antibody [7], the “period for which emission could be imaged” value is on record as “several hours”. For the same compound, the “time to maximum chemiluminescence intensity” value in assay [4] (0.66 mM 5, 6.4 μM lucigenin, 1 mg/mL SDS, 0.01 mg/mL Na2SO3, 0.033% TWEEN 20, tris pH 8.8, 8×10^−16 mol AP, 25° C.) was 2 min. The “S at 36 min (plateau intensity)” value in assay [4] turned out to be 34.7.

For the origin of these results see patent publication US6635437B2, “Compounds, compositions and methods for generating chemiluminescence with phosphatase enzymes” (Lumigen, Inc., priority 1996, dated 2003).
